Measured values as given in patent US9458153B2, “Dihydroquinolizinones for the treatment and prophylaxis of hepatitis B virus infection” (Hoffmann-La Roche Inc., priority 2014, dated 2016).
Counter-ions that a name gives are not always drawn.

Test system: HBsAg
Assay: HBsAg assay (chemiluminescence immunoassay of secreted HBsAg in HepG2.2.15 culture supernatant)
Type: cell-based, HBV
Conditions: HBsAg secretion reduced by 50% vs no drug control, HepG2.2.15 cells, CLIA kit
Protocol: HepG2.2.15 cells (Acs et al. Proc Natl Acad Sci USA, 84, (1987), 4641-4), a constitutively HBV-expressing cell line were cultured in DMEM+Glutamax-I medium (Invitrogen, Carlsbad, Calif., USA), supplemented with 10% fetal bovine serum (Invitrogen) and G418 (Invitrogen) at a final concentration of 200 mg/L and maintained in 5% CO2 at 37° C.
HepG2.2.15 cells were seeded in duplicate into white, 96-well plates at 1.5×10^4 cells/well. The cells were treated with a three-fold serial dilution series of the compounds in DMSO. The final DMSO concentration in all wells was 1% and DMSO was used as no drug control.
The HBsAg chemiluminescence immunoassay (CLIA) kit (Autobio Diagnostics Co., Zhengzhou, China, Catalog number: CL0310-2) was used to measure the levels of secreted HBV antigens semi-quantitatively. For the detection 50 μL/well culture supernatant was used and HBsAg was quantified using HBsAg chemiluminescence immunoassay (CLIA) kit (Autobio Diagnostics Co., Zhengzhou, China, Catalog number: CL0310-2), 50 μL of the supernatant was transferred to the CLIA assay plate and 50 μL of enzyme conjugate reagent was added into each well. The plates were sealed and gently agitated for 1 hour at room temperature. The supernatant-enzyme-mixture was discarded and wells were washed 6 times with 300 μL of PBS. The residual liquid was removed by plating the CLIA plate right side down on absorbent tissue paper. 25 μL of substrates A and B were added to each well. Luminance was measured using a luminometer (Mithras LB 940 Multimode Microplate Reader) after 10 minutes incubation. Dose-response curves were generated and the IC50 value was extrapolated by using the E-WorkBook Suite (ID Business Solutions Ltd., Guildford, UK).
The compounds of the present invention were tested for their capacity to inhibit HBsAg as described herein.

SMILES	IC50 [nM]	IC50 (hydrochloride) [nM]
COc1cc2c(cc1OCC(C)(C)CO)CC(C(C)(C)C)n1cc(C(=O)O)c(=O)cc1-2 (single isomer, unassigned; (+)) [Example 150, (+)-6-tert-butyl-9-(3-hydroxy-2,2-dimethyl-propoxy)-10-methoxy-2-oxo-6,7-dihydrobenzo[a]quinolizine-3-carboxylic acid]	2	–
COc1cc2c(cc1OCCCCCO)CC(C(C)(C)C)n1cc(C(=O)O)c(=O)cc1-2 (single isomer, unassigned; (+)) [Example 153, (+)-6-tert-butyl-9-(5-hydroxypentoxy)-10-methoxy-2-oxo-6,7-dihydrobenzo[a]quinolizine-3-carboxylic acid]	1	–
COc1cc2c(cc1OCCCCCCO)CC(C(C)(C)C)n1cc(C(=O)O)c(=O)cc1-2 (single isomer, unassigned; (+)) [Example 156, (+)-6-tert-butyl-9-(6-hydroxyhexoxy)-10-methoxy-2-oxo-6,7-dihydrobenzo[a]quinolizine-3-carboxylic acid]	1	–
COc1cc2c(cc1OCCCCCCNC(=O)OC(C)(C)C)CC(C(C)(C)C)n1cc(C(=O)O)c(=O)cc1-2 (single isomer, unassigned; (+)) [Example 162, (+)-9-[6-(tert-butoxycarbonylamino)hexoxy]-6-tert-butyl-10-methoxy-2-oxo-6,7-dihydrobenzo[a]quinolizine-3-carboxylic acid]	2	–
COc1cc2c(cc1OCCCCCCN)CC(C(C)(C)C)n1cc(C(=O)O)c(=O)cc1-2 (single isomer, unassigned; (+)) [Example 164, (+)-9-(6-aminohexoxy)-6-tert-butyl-10-methoxy-2-oxo-6,7-dihydrobenzo[a]quinolizine-3-carboxylic acid hydrochloride]	–	3
COc1cc2c(cc1OCCCCCCCCNC(=O)OC(C)(C)C)CC(C(C)(C)C)n1cc(C(=O)O)c(=O)cc1-2 (single isomer, unassigned; (+)) [Example 168, (+)-9-[8-(tert-butoxycarbonylamino)octoxy]-6-tert-butyl-10-methoxy-2-oxo-6,7-dihydrobenzo[a]quinolizine-3-carboxylic acid]	6	–
COc1cc2c(cc1OCCCCCCCCN)CC(C(C)(C)C)n1cc(C(=O)O)c(=O)cc1-2 (single isomer, unassigned; (+)) [Example 170, (+)-9-(8-aminooctoxy)-6-tert-butyl-10-methoxy-2-oxo-6,7-dihydrobenzo[a]quinolizine-3-carboxylic acid hydrochloride]	–	8
COc1cc2c(cc1OCCCCCN)CC(C(C)(C)C)n1cc(C(=O)O)c(=O)cc1-2 (single isomer, unassigned; (+)) [Example 173, (+)-9-(5-aminopentoxy)-6-tert-butyl-10-methoxy-2-oxo-6,7-dihydrobenzo[a]quinolizine-3-carboxylic acid hydrochloride]	–	21
COc1cc2c(cc1OCCCSC)CC(C(C)(C)C)n1cc(C(=O)O)c(=O)cc1-2 (single isomer, unassigned; (+)) [Example 184, (+)-6-tert-butyl-10-methoxy-9-(3-methylsulfanylpropoxy)-2-oxo-6,7-dihydrobenzo[a]quinolizine-3-carboxylic acid]	1	–
COc1cc2c(cc1OCCCS(C)(=O)=O)CC(C(C)(C)C)n1cc(C(=O)O)c(=O)cc1-2 (single isomer, unassigned; (+)) [Example 187, (+)-6-tert-butyl-10-methoxy-9-(3-methylsulfonylpropoxy)-2-oxo-6,7-dihydrobenzo[a]quinolizine-3-carboxylic acid]	13	–
COc1cc2c(cc1OCCCN1CCOCC1)CC(C(C)(C)C)n1cc(C(=O)O)c(=O)cc1-2 (single isomer, unassigned; (+)) [Example 193, (+)-6-tert-butyl-10-methoxy-9-(3-morpholinopropoxy)-2-oxo-6,7-dihydrobenzo[a]quinolizine-3-carboxylic acid]	3	–
COCCCOc1cc2c(cc1OC)-c1cc(=O)c(C(=O)O)cn1C(CC(F)(F)F)C2 (single isomer, unassigned; (+)) [Example 200, (+)-10-methoxy-9-(3-methoxypropoxy)-2-oxo-6-(2,2,2-trifluoroethyl)-6,7-dihydrobenzo[a]quinolizine-3-carboxylic acid]	24	–
COCCCOc1cc2c(cc1Cl)-c1cc(=O)c(C(=O)O)cn1C(C(C)(C)C)C2 (single isomer, unassigned; (+)) [Example 203, (+)-6-tert-butyl-10-chloro-9-(3-methoxypropoxy)-2-oxo-6,7-dihydrobenzo[a]quinolizine-3-carboxylic acid]	0.3	–
COCCCOc1cc2c(c(F)c1F)-c1cc(=O)c(C(=O)O)cn1C(C(C)C)C2 (single isomer, unassigned; (+)) [Example 214, (+)-10,11-difluoro-6-isopropyl-9-(3-methoxypropoxy)-2-oxo-6,7-dihydrobenzo[a]quinolizine-3-carboxylic acid]	15	–
CCOc1cc2c(cc1OCC)-c1cc(=O)c(C(=O)O)cn1C(CC)C2 (single isomer, unassigned; (-)) [Example 7, (−)-9,10-diethoxy-6-ethyl-2-oxo-6,7-dihydrobenzo[a]quinolizine-3-carboxylic acid]	1900	–
CCC1Cc2cc(OCc3ccccc3)c(OC)cc2-c2cc(=O)c(C(=O)O)cn21 (single isomer, unassigned; (-)) [Example 10, (−)-9-benzyloxy-6-ethyl-10-methoxy-2-oxo-6,7-dihydrobenzo[a]quinolizine-3-carboxylic acid]	1240	–
CCC1Cc2cc(OCC(F)(F)F)c(OC)cc2-c2cc(=O)c(C(=O)O)cn21 (single isomer, unassigned; (-)) [Example 12, (−)-6-ethyl-10-methoxy-2-oxo-9-(2,2,2-trifluoroethoxy)-6,7-dihydrobenzo[a]quinolizine-3-carboxylic acid]	5200	–
CCC1Cc2cc(OCC(C)(C)CO)c(OC)cc2-c2cc(=O)c(C(=O)O)cn21 (single isomer, unassigned; (-)) [Example 24, (−)-6-ethyl-9-(3-hydroxy-2,2-dimethyl-propoxy)-10-methoxy-2-oxo-6,7-dihydrobenzo[a]quinolizine-3-carboxylic acid]	1350	–
CCC1Cc2cc(OCCOC)c(OC)cc2-c2cc(=O)c(C(=O)O)cn21 (single isomer, unassigned; (-)) [Example 29, (−)-6-ethyl-10-methoxy-9-(2-methoxyethoxy)-2-oxo-6,7-dihydrobenzo[a]quinolizine-3-carboxylic acid]	1950	–
CCC1Cc2cc(OCC3CC3)c(OC)cc2-c2cc(=O)c(C(=O)O)cn21 (single isomer, unassigned; (-)) [Example 32, (−)-9-(cyclopropylmethoxy)-6-ethyl-10-methoxy-2-oxo-6,7-dihydrobenzo[a]quinolizine-3-carboxylic acid]	75	–
CCC1Cc2cc(OCC(C)C)c(OC)cc2-c2cc(=O)c(C(=O)O)cn21 (single isomer, unassigned; (-)) [Example 35, (−)-6-ethyl-9-isobutoxy-10-methoxy-2-oxo-6,7-dihydrobenzo[a]quinolizine-3-carboxylic acid]	1390	–
CCOc1cc2c(cc1OC)-c1cc(=O)c(C(=O)O)cn1C(CC)C2 (single isomer, unassigned; (-)) [Example 38, (−)-9-ethoxy-6-ethyl-10-methoxy-2-oxo-6,7-dihydrobenzo[a]quinolizine-3-carboxylic acid]	1810	–
CCC1Cc2cc(OCCCOC)c(OC)cc2-c2cc(=O)c(C(=O)O)cn21 (single isomer, unassigned; (-)) [Example 41, (−)-6-ethyl-10-methoxy-9-(3-methoxypropoxy)-2-oxo-6,7-dihydrobenzo[a]quinolizine-3-carboxylic acid]	5770	–
CCOCCOc1cc2c(cc1OC)-c1cc(=O)c(C(=O)O)cn1C(CC)C2 (single isomer, unassigned; (-)) [Example 44, (−)-9-(2-ethoxyethoxy)-6-ethyl-10-methoxy-2-oxo-6,7-dihydrobenzo[a]quinolizine-3-carboxylic acid]	5460	–
CCC1Cc2cc(OCC(F)F)c(OC)cc2-c2cc(=O)c(C(=O)O)cn21 (single isomer, unassigned; (-)) [Example 47, (−)-9-(2,2-difluoroethoxy)-6-ethyl-10-methoxy-2-oxo-6,7-dihydrobenzo[a]quinolizine-3-carboxylic acid]	3400	–
CCC1Cc2cc(OCC3CCOCC3)c(OC)cc2-c2cc(=O)c(C(=O)O)cn21 (single isomer, unassigned; (-)) [Example 50, (−)-6-ethyl-10-methoxy-2-oxo-9-(tetrahydropyran-4-ylmethoxy)-6,7-dihydrobenzo[a]quinolizine-3-carboxylic acid]	400	–
